Values of other authors, collected in patent publication US8097726B2, “Huperzine a compound for treatment of alzheimer's disease” (priority 2006, dated 2012).

Columns and labels:
[1] = rapidly eliminated from the kidneys
[2] = administered orally at 0.2 mg twice a day for 8 weeks; AD patients

SMILES: C/C=C1\[C@H]2C=C(C)C[C@]1(N)c1ccc(=O)[nH]c1C2 [huperzine A]
- half-life in plasma [1]: 4 to 5 h
- patients with significant improvement in memory, cognition and behavior [2]: 58%
